# Data reported in patent US20140357713A1, “ANTIMICROBIAL COMPOUNDS AND METHODS OF USE” (NexMed Holdings, Inc., priority 2012, published 2014).
# Where two headings read alike, the source gives them in different places.
# Key:
# [1] = tested on: Staphulococcus aureus (ATCC 29213); assay: Minimum inhibitory concentration (MIC) assay, Example 33; assay type: cell-based, Staphylococcus aureus; settings: Staphylococcus aureus
# How it was run: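 Following CLSI guidelines, each bacterial strain was taken from a twice-restreaked agar colony and suspended to 0.5 McFarland density. After a 1:100 dilution it was mixed 1:2 with 2-fold serially diluted compound in CAMHB. The MIC was read after incubation at 35 °C.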
# Aspergillus niger = assay: Extended time kill study, Example 34 (0 to 24 h); assay type: cell-based
# Description: (§1) Time kill studies. Strain suspensions were prepared as described above for the MIC test, and strain suspensions and compound solutions were mixed in the same volume. Samples were removed at specified times including 0 min, 30 sec, 1 min and 5 mins, were diluted in the test medium and streaked on agar. Colonies were counted after 24 to 48 hrs of incubation.
# (§2) The time kill studies of Example 33 were extended for five compounds (Nex-59, Nex-60, Nex-61, Nex-62, and Nex-88) using the same methods at longer time periods and at higher multiples of MIC. Nex-88 is a code number for DDAIP.HCl from a different supplier.
# Candida albicans = assay: Extended time kill study, Example 34 (0 to 24 h); assay type: cell-based
# Description: as §1, §2
# Pseudomonas aeruginosa = assay: Extended time kill study, Example 34 (0 to 24 h); assay type: cell-based
# Description: as §1, §2
# Staphylococcus aureus = assay: Extended time kill study, Example 34 (0 to 24 h); assay type: cell-based
# Description: as §1, §2
compound,measurement,setting,value
"CCCCCCCCCCCCOC(=O)C(C)NC.Cl (stereo not drawn) [Nex-59, Dodecyl 2-(methylamino)propanoate hydrochloride]",MIC,"[1]; ATCC29213, Table 19 summary, read-out: MIC",50 µg/mL
same,MIC,"[1]; ATCC29213, n = 1, read-out: MIC S. aureus",50 µg/mL
same,MIC,"[1]; ATCC29213, n = 2, read-out: MIC S. aureus",50 µg/mL
same,Viable counts in Log10 CFU/mL,"Aspergillus niger; 1 × MIC, 1 h",5.34 Log10 CFU/mL
same,Viable counts in Log10 CFU/mL,"Aspergillus niger; 1 × MIC, 2 h",5.48 Log10 CFU/mL
same,Viable counts in Log10 CFU/mL,"Aspergillus niger; 1 × MIC, 4 h",5.08 Log10 CFU/mL
same,Viable counts in Log10 CFU/mL,"Aspergillus niger; 1 × MIC, 6 h",5.30 Log10 CFU/mL
same,Viable counts in Log10 CFU/mL,"Aspergillus niger; 1 × MIC, 24 h",3.78 Log10 CFU/mL
same,Viable counts in Log10 CFU/mL,"Aspergillus niger; 1 × MIC, 0 h",5.41 Log10 CFU/mL
same,Viable counts in Log10 CFU/mL,"Aspergillus niger; 2 × MIC, 1 h",5.11 Log10 CFU/mL
same,Viable counts in Log10 CFU/mL,"Aspergillus niger; 2 × MIC, 2 h",4.70 Log10 CFU/mL
same,Viable counts in Log10 CFU/mL,"Aspergillus niger; 2 × MIC, 4 h",4.48 Log10 CFU/mL
same,Viable counts in Log10 CFU/mL,"Aspergillus niger; 2 × MIC, 6 h",3.95 Log10 CFU/mL
same,Viable counts in Log10 CFU/mL,"Aspergillus niger; 2 × MIC, 24 h",<2 Log10 CFU/mL
same,Viable counts in Log10 CFU/mL,"Aspergillus niger; 2 × MIC, 0 h",5.36 Log10 CFU/mL
same,Viable counts in Log10 CFU/mL,"Aspergillus niger; 4 × MIC, 1 h",5.08 Log10 CFU/mL
same,Viable counts in Log10 CFU/mL,"Aspergillus niger; 4 × MIC, 2 h",4.48 Log10 CFU/mL
same,Viable counts in Log10 CFU/mL,"Aspergillus niger; 4 × MIC, 4 h",3.85 Log10 CFU/mL
same,Viable counts in Log10 CFU/mL,"Aspergillus niger; 4 × MIC, 6 h",4.04 Log10 CFU/mL
same,Viable counts in Log10 CFU/mL,"Aspergillus niger; 4 × MIC, 24 h",<2 Log10 CFU/mL
same,Viable counts in Log10 CFU/mL,"Aspergillus niger; 4 × MIC, 0 h",5.29 Log10 CFU/mL
same,Viable counts in Log10 CFU/mL,"Candida albicans; 1 × MIC, 1 h",5.41 Log10 CFU/mL
same,Viable counts in Log10 CFU/mL,"Candida albicans; 1 × MIC, 2 h",5.24 Log10 CFU/mL
same,Viable counts in Log10 CFU/mL,"Candida albicans; 1 × MIC, 4 h",4.96 Log10 CFU/mL
same,Viable counts in Log10 CFU/mL,"Candida albicans; 1 × MIC, 6 h",4.40 Log10 CFU/mL
same,Viable counts in Log10 CFU/mL,"Candida albicans; 1 × MIC, 24 h",>6 Log10 CFU/mL
same,Viable counts in Log10 CFU/mL,"Candida albicans; 1 × MIC, 0 h",5.68 Log10 CFU/mL
same,Viable counts in Log10 CFU/mL,"Candida albicans; 2 × MIC, 1 h",3.48 Log10 CFU/mL
same,Viable counts in Log10 CFU/mL,"Candida albicans; 2 × MIC, 2 h",3.00 Log10 CFU/mL
same,Viable counts in Log10 CFU/mL,"Candida albicans; 2 × MIC, 4 h",3.00 Log10 CFU/mL
same,Viable counts in Log10 CFU/mL,"Candida albicans; 2 × MIC, 6 h",<2.70 Log10 CFU/mL
same,Viable counts in Log10 CFU/mL,"Candida albicans; 2 × MIC, 24 h",<1 Log10 CFU/mL
same,Viable counts in Log10 CFU/mL,"Candida albicans; 2 × MIC, 0 h",5.75 Log10 CFU/mL
same,Viable counts in Log10 CFU/mL,"Candida albicans; 4 × MIC, 1 h",<3 Log10 CFU/mL
same,Viable counts in Log10 CFU/mL,"Candida albicans; 4 × MIC, 2 h",<3 Log10 CFU/mL
same,Viable counts in Log10 CFU/mL,"Candida albicans; 4 × MIC, 4 h",<2.70 Log10 CFU/mL
same,Viable counts in Log10 CFU/mL,"Candida albicans; 4 × MIC, 6 h",<2.70 Log10 CFU/mL
same,Viable counts in Log10 CFU/mL,"Candida albicans; 4 × MIC, 24 h",<1 Log10 CFU/mL
same,Viable counts in Log10 CFU/mL,"Candida albicans; 4 × MIC, 0 h",5.63 Log10 CFU/mL
same,"Viable counts, Pseudomonas aeruginosa time kill study","Pseudomonas aeruginosa; 1 × MIC, 1 h",<1 Log10 CFU/mL
same,"Viable counts, Pseudomonas aeruginosa time kill study","Pseudomonas aeruginosa; 1 × MIC, 2 h",<1 Log10 CFU/mL
same,"Viable counts, Pseudomonas aeruginosa time kill study","Pseudomonas aeruginosa; 1 × MIC, 4 h",<1 Log10 CFU/mL
same,"Viable counts, Pseudomonas aeruginosa time kill study","Pseudomonas aeruginosa; 1 × MIC, 6 h",<1 Log10 CFU/mL
same,"Viable counts, Pseudomonas aeruginosa time kill study","Pseudomonas aeruginosa; 1 × MIC, 24 h",<1 Log10 CFU/mL
same,"Viable counts, Pseudomonas aeruginosa time kill study","Pseudomonas aeruginosa; 1×MIC, time 0",5.18 Log10 CFU/mL
same,"Viable counts, Pseudomonas aeruginosa time kill study","Pseudomonas aeruginosa; 2 × MIC, 1 h",<1 Log10 CFU/mL
same,"Viable counts, Pseudomonas aeruginosa time kill study","Pseudomonas aeruginosa; 2 × MIC, 2 h",<1 Log10 CFU/mL
same,"Viable counts, Pseudomonas aeruginosa time kill study","Pseudomonas aeruginosa; 2 × MIC, 4 h",<1 Log10 CFU/mL
same,"Viable counts, Pseudomonas aeruginosa time kill study","Pseudomonas aeruginosa; 2 × MIC, 6 h",<1 Log10 CFU/mL
same,"Viable counts, Pseudomonas aeruginosa time kill study","Pseudomonas aeruginosa; 2 × MIC, 24 h",<1 Log10 CFU/mL
same,"Viable counts, Pseudomonas aeruginosa time kill study","Pseudomonas aeruginosa; 2 × MIC, time 0",5.16 Log10 CFU/mL
same,"Viable counts, Pseudomonas aeruginosa time kill study","Pseudomonas aeruginosa; 4 × MIC, 1 h",<1 Log10 CFU/mL
same,"Viable counts, Pseudomonas aeruginosa time kill study","Pseudomonas aeruginosa; 4 × MIC, 2 h",<1 Log10 CFU/mL
same,"Viable counts, Pseudomonas aeruginosa time kill study","Pseudomonas aeruginosa; 4 × MIC, 4 h",<1 Log10 CFU/mL
same,"Viable counts, Pseudomonas aeruginosa time kill study","Pseudomonas aeruginosa; 4 × MIC, 6 h",<1 Log10 CFU/mL
same,"Viable counts, Pseudomonas aeruginosa time kill study","Pseudomonas aeruginosa; 4 × MIC, 24 h",<1 Log10 CFU/mL
same,"Viable counts, Pseudomonas aeruginosa time kill study","Pseudomonas aeruginosa; 4 × MIC, time 0",5.21 Log10 CFU/mL
same,"Viable counts, Staphylococcus aureus time kill study","Staphylococcus aureus; 1 × MIC, 1 h",<3 Log10 CFU/mL
same,"Viable counts, Staphylococcus aureus time kill study","Staphylococcus aureus; 1 × MIC, 2 h",<3 Log10 CFU/mL
same,"Viable counts, Staphylococcus aureus time kill study","Staphylococcus aureus; 1 × MIC, 4 h",<3 Log10 CFU/mL
same,"Viable counts, Staphylococcus aureus time kill study","Staphylococcus aureus; 1 × MIC, 6 h",<3 Log10 CFU/mL
same,"Viable counts, Staphylococcus aureus time kill study","Staphylococcus aureus; 1 × MIC, 24 h",<1 Log10 CFU/mL
same,"Viable counts, Staphylococcus aureus time kill study","Staphylococcus aureus; 1×MIC, time 0",6.20 Log10 CFU/mL
same,"Viable counts, Staphylococcus aureus time kill study","Staphylococcus aureus; 2 × MIC, 1 h",<3 Log10 CFU/mL
same,"Viable counts, Staphylococcus aureus time kill study","Staphylococcus aureus; 2 × MIC, 2 h",<3 Log10 CFU/mL
same,"Viable counts, Staphylococcus aureus time kill study","Staphylococcus aureus; 2 × MIC, 4 h",<3 Log10 CFU/mL
same,"Viable counts, Staphylococcus aureus time kill study","Staphylococcus aureus; 2 × MIC, 6 h",<3 Log10 CFU/mL
same,"Viable counts, Staphylococcus aureus time kill study","Staphylococcus aureus; 2 × MIC, 24 h",<1 Log10 CFU/mL
same,"Viable counts, Staphylococcus aureus time kill study","Staphylococcus aureus; 2 × MIC, time 0",6.19 Log10 CFU/mL
same,"Viable counts, Staphylococcus aureus time kill study","Staphylococcus aureus; 4 × MIC, 1 h",<3 Log10 CFU/mL
same,"Viable counts, Staphylococcus aureus time kill study","Staphylococcus aureus; 4 × MIC, 2 h",<3 Log10 CFU/mL
same,"Viable counts, Staphylococcus aureus time kill study","Staphylococcus aureus; 4 × MIC, 4 h",<3 Log10 CFU/mL
same,"Viable counts, Staphylococcus aureus time kill study","Staphylococcus aureus; 4 × MIC, 6 h",<3 Log10 CFU/mL
same,"Viable counts, Staphylococcus aureus time kill study","Staphylococcus aureus; 4 × MIC, 24 h",<1 Log10 CFU/mL
same,"Viable counts, Staphylococcus aureus time kill study","Staphylococcus aureus; 4 × MIC, time 0",6.18 Log10 CFU/mL
